Entries after “also recorded” stand apart in the source; their conditions may differ.
Tests used:
[1] = biological target: T1, binding of rSdrG(50-597) to Fg (Staphylococcus epidermidis, UniProt Q9KI13); experiment: ELISA: inhibition of rSdrG(50-597) binding to immobilized Fg by synthetic peptides; design: species or system S. epidermidis; settings: for inhibition of rSdrG(50-597) binding to Fg: 50 nM rSdrG(50-597) pre-incubated with peptide 1 h
T1 construct: made in house; host or cells: E. coli Topp3
T1 sequence (Q9KI13 50-597): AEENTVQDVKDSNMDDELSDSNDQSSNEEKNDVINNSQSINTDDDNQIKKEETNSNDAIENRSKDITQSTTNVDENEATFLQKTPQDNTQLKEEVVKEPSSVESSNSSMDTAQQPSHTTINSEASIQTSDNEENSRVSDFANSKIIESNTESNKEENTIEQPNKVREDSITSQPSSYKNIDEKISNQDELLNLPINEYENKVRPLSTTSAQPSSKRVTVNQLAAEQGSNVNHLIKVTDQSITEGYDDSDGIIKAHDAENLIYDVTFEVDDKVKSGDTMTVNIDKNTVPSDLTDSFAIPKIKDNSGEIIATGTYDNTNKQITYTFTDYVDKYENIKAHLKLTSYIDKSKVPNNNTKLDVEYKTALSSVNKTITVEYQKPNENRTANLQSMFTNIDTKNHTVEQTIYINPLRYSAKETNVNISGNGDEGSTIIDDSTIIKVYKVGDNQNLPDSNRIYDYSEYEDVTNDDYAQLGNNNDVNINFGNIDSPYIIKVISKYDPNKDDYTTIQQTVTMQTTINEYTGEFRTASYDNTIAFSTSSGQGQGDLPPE
Procedure: ELISA—Microtiter plates (Immulon 4, Dynatech Laboratories Inc.) were coated with 1 μg of Fg (Enzyme Research Labs) in PBS, pH 7.5 for 18 h at 4° C. Plates were washed three times with PBS, 0.05% Tween 20 (PBST) and blocked with 1% (w/v) bovine serum albumin (BSA) for 1 h at room temperature. Plates were washed three times with PBST and rSdrG(50-597), diluted into PBS, was added to the wells and the plate was incubated for 1 h at room temperature. Plates were washed three times with PBST and bound rSdrG(50-597) was detected by adding a 1:2000 dilution of an anti-His-tag mAb (Clontech) in PBST, 0.1% BSA. Plates were incubated for 1 h at room temperature and then washed three times with PBST. A 1:2000 dilution of goat anti-mouse alkaline phosphatase (AP)-conjugated polyclonal antibodies (Bio-Rad) in PBST, 0.1% BSA were added to the wells and the plate was incubated for 1 h at room temperature. Plates were washed three times with PBST and developed with p-nitrophenyl phosphate (Sigma) in 1 M diethanolamine, 0.5 mM MgCl2, pH 9.0 at room temperature for ˜30 min. Plates were read at 405 nm using an ELISA plate reader (Thermomax microplate reader, Molecular Devices).
In the inhibition experiments, 50 nM rSdrG(50-597) in PBS was pre-incubated with the indicated amounts of selected peptides for 1 h at room temperature. The sample mixtures were added to the Fg-coated wells and bound rSdrG(50-597) was detected as described above.

rSdrG(50-597) = rSdrG(50-597) (Staphylococcus epidermidis, UniProt Q9KI13); settings: increasing amounts of unlabeled peptide
Procedure: Fluorescence Polarization—Fluorescence polarization was used to determine the equilibrium dissociation constant (KD) for the interaction of rSdrG(50-597) with peptide β1-25. The peptide was labeled with fluorescein as previously described (18). Increasing concentrations of rSdrG(50-597) in PBS, pH 7.5, were incubated with 10 nM labeled peptide for 3 h in the dark at room temperature. Reactions were allowed to reach equilibrium. Polarization measurements were taken with a Luminescence Spectrometer LS50B (Perkin Elmer) using FL WinLab software (Perkin Elmer). Binding data was analyzed by nonlinear regression used to fit a binding function as defined by the following equation: [formula]
Determination of Equilibrium Dissociation Constants (KD)—An equilibrium dissociation constant (KD) for the interaction of rSdrG(50-597) with the Fg Bβ chain peptide β1-25 was determined.

[2] = in vivo; cited from earlier work

NEEGFFSA RGHRPLD [β6-20]
inhibition of rSdrG(50-597) binding to Fg [1]: Effective inhibition; also recorded: potent inhibitor

FSERKDLHQGEGNPREFVENDAKGR [β1-25S]
inhibition of rSdrG(50-597) binding to Fg [1]: did not interfere | inhibition of rSdrG(50-597) binding to fluorescein-labeled β1-25 (rSdrG(50-597)): not

QGVNDNEEGFFSARGHRPLDKK REE [β1-25]
inhibition of rSdrG(50-597) binding to Fg [1]: inhibit the binding of rSdrG(50-597) to Fg in a concentration dependent manner | inhibition of rSdrG(50-597) binding to fluorescein-labeled β1-25 (rSdrG(50-597)): inhibited binding

heparin
major bleeding, patients [2]: 1-33% | thrombocytopenia, patients [2]: 1-5%

FSARGHRPLD [β11-20]
inhibition of rSdrG(50-597) binding to Fg [1]: essentially inactive

QGVNDNEEGFFSAR [FpB]
inhibition of rSdrG(50-597) binding to Fg [1]: inhibited the binding of rSdrG(50-597) in a concentration dependent manner; also recorded: poor inhibitory activity | activity relative to peptide β1-25 (fold less active) ([1]; inhibition ELISA, FIG. 4C): at least 10 fold

NEEGFFSARGHRPLDKKREE [β6-25]
inhibition of rSdrG(50-597) binding to Fg [1]: inhibit the binding of rSdrG(50-597) to Fg in a concentration dependent manner

ADSEGEGDFLAEGGGVR (listed as Staphylococcus epidermidis) [FpA]
inhibition of rSdrG(50-597) binding to Fg [1]: essentially inactive

Reference: US6835378B2, “Method and compositions for inhibiting thrombin-induced coagulation” (The Texas A&M University System University, priority 2001, dated 2004)
